Source: patent US20110251158A1, “FULLERENE THERAPIES FOR INFLAMMATION AND INHIBITION OF BUILD-UP OF ARTERIAL PLAQUE” (Luna Innovations Incorporated, priority 2008, published 2011)
Several values for one entry are separate records, joined by “and”; a condition that tells them apart may be missing. Identical values can stand only once.

Tests used:
LAT phosphorylation = test: Western blotting of FcεRI-activated phospho-signaling in MC: LAT; assay type: cell-based, human; conditions: 10 μg/mL overnight
Procedure: Cell lysate preparation and Western blotting were performed using a protocol optimized for extracting phospho-proteins from human MC. Tkaczyk, C., Metcalfe, D. D., and Gilfillan, A. M. J. Immunol. Methods 268, 239-243 (2002). Following activation, cells were lysed directly in boiling denaturing sample buffer consisting of tris-buffered saline with triton-X-100 (0.5%) and protease and phosphatase inhibitors. The cell suspension was then passed through a 20-gauge needle, boiled, and centrifuged to remove cell debris. Proteins were separated on 8% or 10% NuPage Tris-Bis gels using Licor running buffer. Western blotting was performed using Licor blocking buffer and IR800 and IR700 anti-rabbit F(ab)2 secondary Abs (1:1000). Primary Abs were from Cell Signaling Technologies or Santa Cruz unless otherwise noted. Band intensities were captured using the Odyssey Imaging System and bands quantified by measuring the number of pixels in each band using a box drawn for the same area of measurement for each separate blot. The band intensity was then normalized for loading by dividing the number of pixels in each band with the housekeeping band intensity (β-actin) performed on the same blot.
MC were pretreated with Inos or TGA (10 μg/mL) overnight at 37° C./6% CO2. The next day washed cells were activated with or without anti-FcεRI (1 μg/mL) for the indicated times and lysed using protocols described above. Two separate 10% Tris-Glycine gels were used for sodium dodecyl sulfate polyacrylamide gel electrophoresis (SDS-PAGE) and Western blotting performed with the indicated phosphorylation-specific (i.e., phosph-Lyn) antibodies. To ensure equal loading, an antiactin antibody was used in parallel. The intensity of each band was detected and quantified using an Odyssey imaging system. Band intensities are presented as a ratio compared to antiactin band intensities probed in the same lane and presented for each time point in the colored graphs on the right side. Results are representative of three separate experiments. […]

inflammatory arthritis = test: Murine arthritis model (arthritogenic serum): clinical indices and ankle swelling; assay type: in vivo, mice (C57/B6)
Procedure: To induce disease, C57/B6 (5 mice/cage/group) mice were injected intraperitoneally (IP) on Days 1 and 3 with 100 μl of arthritogenic serum. […] As a control 100 μl of PBS without serum was injected in the control group. Swelling in each ankle was measured along with the clinical indices as described (Lee, D M, Science 2002, Sep. 6; 297(5587):1689-92). Measurements were performed every second day by personnel blinded to the identity of the injections. After 14 days mice were sacrificed and ankle sections removed for histology and serum obtained for cytokine analysis. Error bars, SEM. In FIG. 5A, clinical index was given as the sum of observed inflammation (per paw): 0=no evidence of inflammation; 1=subtle inflammation (metatarsal phalanges joints, individual phalanx, or localized edema); 2=easily identified swelling but localized to either dorsal or ventral surface of paw; and 3=swelling on all aspects of paw. Maximum score=12. In FIG. 5B, the sum of the measurement in ankle swelling at each day was given. The * indicates significant differences observed on that day in fullerene compared to non-fullerene-treated mice. Prior to injection, 5 was incorporated into liposomes with egg phosphatidylcholine (PC) at a ratio of 1:2. 7 was dissolved in PBS buffer at pH 7.4. […]

Mast cells (MC) = test: Anti-FcεRI-induced MC degranulation (β-hexosaminidase release); assay type: cell-based, human; conditions: for Mean percent degranulation, TGA + XL: TGA Treatment @ 10 μg/ml, Exp 1-5 and Average (±SD)
Procedure: MC are a component of the inflammatory response. As such, cultures of human Mast Cells can be used for screening the activity of different fullerene derivatives to evaluate their potential activity in animal models. In this example, human skin tissue was received from the Cooperative Human Tissue Network and MC purified and cultured as described in Kepley, C. L. Int. Arch. Allergy Immunol. 138, 29-39 (2005). The MC were cultured in media containing stem cell factor which is removed from the culture 24 hours prior to experimentation.
For activation, MC were suspended in fresh medium (without cytokines) and incubated for 16 hours with or without fullerene derivatives at 37° C. in a 6% CO2 incubator. […] The next morning, cells were washed and stimulated with anti-FcεRI Abs (3B4; 1 μg/ml) for 30 minutes (β-hexosaminidase) or overnight (GM-CSF) at 37° C. in a 6% CO2 incubator and mediator release measured as described in Zhao, W., Kepley, C. L., Morel, P. A., Okumoto, L. M., Fukuoka, Y., and Schwartz, L. B. J Immunol. 177, 694-701 (2006). All MC mediator release studies were performed in triplicate.
Cells were cultured with fixed concentrations of a fullerene derivative (10 μg/ml; FIGS. 8A and 9A) or different concentrations (FIGS. 8B and 9B) for 16 h, washed and stimulated for 30 min (FIGS. 8A and 8B) or 24 hours (FIGS. 9A and 9B) with optimal concentrations of αanti-FcεRI Abs (3B4; 1 μg/ml). Cells were centrifuged and β-hexosaminidase release and GMCSF levels determined by ELISA.

## C70-tetraglycolic acid [TGA]
LAT phosphorylation; 3 minutes
  reduced LAT phosphorylation: 36%
LAT phosphorylation; 5 minutes
  reduced LAT phosphorylation: 72%
LAT phosphorylation; 10 minutes
  reduced LAT phosphorylation: 69%
Inflammatory arthritis; 200 ng/100 μl IP, days 6 to 12, p<0.03
  Inflammation: significantly inhibited
Inflammatory arthritis; 2000 ng/100 μl IP, days 10 to 14, p<0.02
  Inflammation: significantly inhibited
Mast cells (MC)
  Mean percent degranulation, TGA + XL: 52.7% and 39.1% and 50.1% and 53.4% and 40.1%
Mast cells (MC); mean
  Mean percent degranulation, TGA + XL: 47.1 (±6.9) percent
Mast cells (MC); maximum inhibition set to 100%
  IC50 (degranulation): 10.9 (±3.5) μg/ml
